Data taken from publication PMC11374673, “Discovery of isoquinoline sulfonamides as allosteric gyrase inhibitors with activity against fluoroquinolone-resistant bacteria” (Nature Chemistry, 2024).
In brackets after ≈: the same amount, converted by molar mass. Several values for one entry are separate records, joined by “and”; a condition that tells them apart may be missing. Equal entries are not always repeated. Entries after “also recorded” stand apart in the source; their conditions may differ.

Legend:
K. pneumoniae ATCC 29665 = assay: MIC by broth microdilution; assay type: cell-based, Klebsiella pneumoniae; conditions: Klebsiella pneumoniae, ATCC29665, broth microdilution; read-out: MIC K. pneumoniae ATCC 29665
Description: MIC was determined by broth microdilution. Single-colony cultures were grown to exponential phase (OD600 of 0.5) aerobically at 37 °C. In case of strains from the Keio collection, 50 µg ml^−1 kanamycin was supplemented to the media to ascertain a homogeneous population. The bacterial suspensions were diluted 100-fold in CAMHB and 50 µl was added to a twofold serial dilution series of test compounds (50 µl per well) in polypropylene 96-well microtitre plates to reach a volume of 100 µl. The plates were sealed with breathable membranes and incubated overnight at 37 °C with constant shaking (600 r.p.m.).

HepG2 = assay: Cytotoxicity assay (MTT); assay type: cell-based, human; conditions: for IC50: MTT, 24 h
Description: (§1) HepG2 (ATCC HB-8065) and HEK293T (ATCC CRL-3216) cell lines were cultured at 37 °C and 7% CO2 in Dulbecco’s modified Eagle medium (Sigma-Aldrich, D6546) with GlutaMax, penicillin (100 µg ml^−1), streptomycin (100 µg ml^−1) and 10% fetal calf serum. Cells were passaged twice a week by first detaching using 0.05% trypsin in phosphate-buffered saline (PBS) and then diluting to appropriate confluence. Compound cytotoxicity was evaluated using the standard (3-(4,5-dimethylthiazol-2-yl)-2,5-diphenyltetrazolium bromide (MTT) assay protocol (MTT assay protocol for cell viability and proliferation, Merck) with slight changes. HepG2 and HEK293T cells were seeded at a density of 1.5 × 10^4 cells per well in a clear 96-well tissue culture treated plate in a final volume of 100 µl in Dulbecco’s modified Eagle medium, supplemented with fetal bovine serum (1%), GlutaMax and penicillin/streptomycin. Cells were incubated for 24 h at 37 °C, 7% CO2 to allow cells to attach to the plates. […] Incubation was done for 24 h at 37 °C, 7% CO2. After the incubation, MTT was added to each well at a final concentration of 0.40 mg ml^−1. The plates were then incubated for 2 h at 37 °C, 7% CO2. Medium was carefully removed via suction, and purple formazan crystals were resuspended in 100 µl DMSO. Absorbance was read at 570 nm using a Clariostar plate reader with MARS (V4.20). The data were then analysed with GraphPad Prism software. IC50 values were calculated using non-linear fitted curve with variable slope settings, with values adjusted for background (plotted absorbance (ABS)sample = (ABSsample – ABSbackground) / (ABSvehicle – ABSbackground)). Technical triplicates for each condition were used, along with biological duplicates.

HEK293T = assay: Cytotoxicity assay (MTT); assay type: cell-based, human; conditions: for MTT data (raw readout): HEK293T; for IC50: Homo sapiens, HEK-293T, 24 h, MTT
Description: as §1

E. coli W3110 = assay: MIC by broth microdilution; assay type: cell-based, Escherichia coli; conditions: for MIC: Escherichia coli, W3110, WT, broth microdilution, read-out: MIC E. coli W3110
In short: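 Broth microdilution in CAMHB: twofold compound series inoculated with 100-fold-diluted bacteria from exponential growth (OD600 0.5, 37 °C); kanamycin 50 µg ml^−1 added for Keio collection strains. Overnight incubation, 37 °C, 600 r.p.m. shaking.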

[1] = HepG2, 0.023 uM, experiment n = 1, technical triplicates
[2] = HepG2, 0.023 uM, experiment n = 2, technical triplicates
[3] = HepG2, 0.068 uM, experiment n = 1, technical triplicates
[4] = HepG2, 0.068 uM, experiment n = 2, technical triplicates
[5] = HepG2, 0.21 uM, experiment n = 1, technical triplicates
[6] = HepG2, 0.21 uM, experiment n = 2, technical triplicates
[7] = HepG2, 0.62 uM, experiment n = 1, technical triplicates
[8] = HepG2, 0.62 uM, experiment n = 2, technical triplicates
[9] = HepG2, 1.85 uM, experiment n = 1, technical triplicates
[10] = HepG2, 1.85 uM, experiment n = 2, technical triplicates
[11] = 0.023 uM, experiment n = 1, technical triplicates
[12] = 0.023 uM, experiment n = 2, technical triplicates
[13] = 0.068 uM, experiment n = 1, technical triplicates
[14] = 0.068 uM, experiment n = 2, technical triplicates
[15] = 0.21 uM, experiment n = 1, technical triplicates
[16] = 0.21 uM, experiment n = 2, technical triplicates
[17] = 0.62 uM, experiment n = 1, technical triplicates
[18] = 0.62 uM, experiment n = 2, technical triplicates
[19] = 1.85 uM, experiment n = 1, technical triplicates
[20] = 1.85 uM, experiment n = 2, technical triplicates

SMILES | MIC (K. pneumoniae ATCC 29665) [µM] | MTT data (raw readout) (HepG2; [1]) | MTT data (raw readout) (HepG2; [2]) | MTT data (raw readout) (HepG2; [3]) | MTT data (raw readout) (HepG2; [4]) | MTT data (raw readout) (HepG2; [5]) | MTT data (raw readout) (HepG2; [6]) | MTT data (raw readout) (HepG2; [7]) | MTT data (raw readout) (HepG2; [8]) | MTT data (raw readout) (HepG2; [9]) | MTT data (raw readout) (HepG2; [10]) | IC50 (HepG2; Homo sapiens, HepG2, 24 h) [µM] | MTT data (raw readout) (HEK293T; [11]) | MTT data (raw readout) (HEK293T; [12]) | MTT data (raw readout) (HEK293T; [13]) | MTT data (raw readout) (HEK293T; [14]) | MTT data (raw readout) (HEK293T; [15]) | MTT data (raw readout) (HEK293T; [16]) | MTT data (raw readout) (HEK293T; [17]) | MTT data (raw readout) (HEK293T; [18]) | further results
N#Cc1ccc(-c2ccc(CNCCNS(=O)(=O)c3cccc4cnccc34)cc2)cc1 [Compound 63] | 12.5 (≈ 5.53 µg/mL) | 0.543 and 0.530 and 0.509 | 0.611 and 0.614 and 0.593 | 0.510 and 0.515 and 0.533 | 0.570 and 0.587 and 0.633 | 0.498 and 0.524 and 0.534 | 0.605 and 0.658 and 0.657 | 0.497 and 0.566 and 0.560 | 0.617 and 0.653 and 0.661 | 0.544 and 0.508 and 0.538 | 0.697 and 0.634 and 0.669 | 38 | 0.901 and 1.153 and 1.291 | 0.788 and 0.714 and 0.753 | 1.230 and 1.606 | 0.880 and 0.788 | 1.126 and 1.263 and 1.301 | 0.786 and 0.824 and 0.781 | 1.516 and 1.537 and 1.418 | 0.850 and 0.846 and 0.825 | MTT data (raw readout) (HepG2; HepG2, 5.6 uM, experiment n = 1, technical triplicates): 0.597 and 0.586 and 0.658; MTT data (raw readout) (HepG2; HepG2, 5.6 uM, experiment n = 2, technical triplicates): 0.663 and 0.721 and 0.746; MTT data (raw readout) (HepG2; HepG2, 16.7 uM, experiment n = 1, technical triplicates): 0.547 and 0.517 and 0.544; MTT data (raw readout) (HepG2; HepG2, 16.7 uM, experiment n = 2, technical triplicates): 0.629 and 0.671 and 0.616; MTT data (raw readout) (HEK293T; [19]): 1.143 and 1.250 and 1.118; MTT data (raw readout) (HEK293T; [20]): 0.775 and 0.761 and 0.773; MTT data (raw readout) (HEK293T; 5.6 uM, experiment n = 1, technical triplicates): 1.050 and 1.130 and 1.181; MTT data (raw readout) (HEK293T; 5.6 uM, experiment n = 2, technical triplicates): 0.666 and 0.667 and 0.723; MTT data (raw readout) (HEK293T; 16.7 uM, experiment n = 1, technical triplicates): 0.577 and 0.585 and 0.499; MTT data (raw readout) (HEK293T; 16.7 uM, experiment n = 2, technical triplicates): 0.403 and 0.407 and 0.398; MTT data (raw readout) (HEK293T; 50 uM, experiment n = 1, technical triplicates): 0.057 and 0.055 and 0.049; IC50 (HEK293T): 14.7 µM; MIC (E. coli W3110): 6.25 µM (≈ 2.77 µg/mL)
O=S(=O)(NC[C@H]1CC[C@H](c2ccc(-c3ccc(F)nc3)cc2)N1)c1cccc2cnccc12 [Compound 97] | 25 (≈ 11.6 µg/mL) | 0.311 and 0.313 and 0.321 | 0.270 and 0.220 and 0.207 | 0.289 and 0.307 and 0.326 | 0.263 and 0.259 and 0.236 | 0.296 and 0.298 and 0.289 | 0.257 and 0.247 and 0.226 | 0.322 and 0.321 and 0.315 | 0.242 and 0.234 | 0.327 and 0.348 and 0.347 | 0.240 and 0.213 | > 100 | 1.365 and 1.275 and 1.431 | 0.941 and 0.907 and 1.040 | 1.367 and 1.278 and 1.395 | 0.968 and 0.952 and 1.040 | 1.452 and 1.196 and 1.181 | 0.930 and 0.987 and 0.817 | 1.160 and 1.204 and 1.255 | 0.874 and 0.902 and 0.863 | IC50 (HepG2): > 50 µM; MTT data (raw readout) (HEK293T; [19]): 1.307 and 1.173 and 1.284; MTT data (raw readout) (HEK293T; [20]): 0.763 and 0.774 and 0.841; IC50 (HEK293T): 39 µM; MIC (E. coli W3110): 12.5 µM (≈ 5.78 µg/mL); antimicrobial activity (E. coli W3110; relative to parent compound): fourfold less active; also recorded: reduced activity
